Experiments:
KRAS (G12D) = biological target: T1, KRAS (G12D) (Homo sapiens, UniProt P01116, G12D); assay: KRAS (G12D) cellular degradation assay in AsPC-1 cells; type: cell-based; conditions: 24 hours, antibody fluorescence (Odyssey CLX), DC50 half-maximal degradation concentration
T1 construct: in-cell western with KRAS G12D antibody after 24 h
Method in brief: (§1)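 AsPC-1 cells: for degradation, grown to ~90% confluency, treated 24 h with 1:3 compound series ([…] to 1.5 nM), then fixed and immunostained for KRAS G12D and β-actin, read by infrared fluorescence, DC50 fitted. Proliferation: 3,500 cells/well, 6-day treatment, CellTiter Glo luminescence, IC50 fitted.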

AsPC-1 cells = assay: AsPC-1 cell proliferation assay (CellTiter Glo); type: cell-based; conditions: Homo sapiens, ASPC1, 144 h, 6 days
Method in brief: as §1

T1 sequence (P01116 1-188 isoform P01116-2 G12D): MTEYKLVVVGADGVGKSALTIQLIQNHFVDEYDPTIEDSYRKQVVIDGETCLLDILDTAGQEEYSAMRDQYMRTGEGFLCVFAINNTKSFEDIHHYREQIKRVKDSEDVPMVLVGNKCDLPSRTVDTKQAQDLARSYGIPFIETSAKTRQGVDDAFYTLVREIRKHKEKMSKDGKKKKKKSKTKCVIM

Compound: CCn1nccc1-c1ccc([C@H](CO)NC(=O)[C@@H]2C[C@@H](O)CN2C(=O)[C@H](C(C)C)n2cc(-c3ccc(COc4c(-c5c(C)c(F)c(C)c6[nH]ncc56)c(C5CC5)cc5c(N6C[C@@H]7C[C@H]6CN7)nc(OC[C@H](C)OC)nc45)cc3)nn2)cc1 [Example 66, (2S,4R)-1-((2S)-2-(4-(4-(((4-((1S,4S)-2,5-diazabicyclo[2.2.1]heptan-2-yl)-6-cyclopropyl-7-(6-fluoro-5,7-dimethyl-1H-indazol-4-yl)-2-((S)-2-methoxypropoxy)quinazolin-8-yl)oxy)methyl)phenyl)-1H-1,2,3-triazol-1-yl)-3-methylbutanoyl)-N—((R)-1-(4-(1-ethyl-1H-pyrazol-5-yl)phenyl)-2-hydroxyethyl)-4-hydroxypyrrolidine-2-carboxamide]
- DC50 (KRAS (G12D)): < 10 nM
- IC50 (AsPC-1 cells): < 10 nM

Compound: CO[C@@H](C)COc1nc(N2C[C@@H]3C[C@H]2CN3)c2cc(C3CC3)c(-c3c(C)c(F)cc4[nH]ncc34)c(OCc3ccc(-c4cn([C@H](C(=O)N5C[C@H](O)C[C@H]5C(=O)N[C@H](C#Cc5cc6scnc6s5)CO)C(C)C)nn4)cc3)c2n1 [Example 67, (2S,4R)-1-((2S)-2-(4-(4-(((4-((1S,4S)-2,5-diazabicyclo[2.2.1]heptan-2-yl)-6-cyclopropyl-7-(6-fluoro-5-methyl-1H-indazol-4-yl)-2-((S)-2-methoxypropoxy)quinazolin-8-yl)oxy)methyl)phenyl)-1H-1,2,3-triazol-1-yl)-3-methylbutanoyl)-4-hydroxy-N—((R)-1-hydroxy-4-(thieno[2,3-d]thiazol-5-yl)but-3-yn-2-yl)pyrrolidine-2-carboxamide]
- DC50 (KRAS (G12D)): 10 to 100 nM
- IC50 (AsPC-1 cells): 10 to 100 nM

Compound: CCn1nccc1-c1ccc([C@H](CO)NC(=O)[C@@H]2C[C@@H](O)CN2C(=O)[C@H](C(C)C)n2cc(-c3ccc(COc4c(-c5c(C)c(F)cc6[nH]ncc56)c(C5CCC5)cc5c(N6C[C@@H]7C[C@H]6CN7)nc(OC[C@H](C)OC)nc45)cc3)nn2)cc1 [Example 68, (2S,4R)-1-((2S)-2-(4-(4-(((4-((1S,4S)-2,5-diazabicyclo[2.2.1]heptan-2-yl)-6-cyclobutyl-7-(6-fluoro-5-methyl-1H-indazol-4-yl)-2-((S)-2-methoxypropoxy)quinazolin-8-yl)oxy)methyl)phenyl)-1H-1,2,3-triazol-1-yl)-3-methylbutanoyl)-N—((R)-1-(4-(1-ethyl-1H-pyrazol-5-yl)phenyl)-2-hydroxyethyl)-4-hydroxypyrrolidine-2-carboxamide]
- DC50 (KRAS (G12D)): < 10 nM
- IC50 (AsPC-1 cells): < 10 nM

Compound: CCn1nccc1-c1ccc([C@H](CO)NC(=O)[C@@H]2C[C@@H](O)CN2C(=O)[C@H](C(C)C)n2cc(-c3ccc(COc4c(-c5c(C)c(F)cc6[nH]ncc56)c(C5CC5)cc5c(N6C[C@@H]7C[C@H]6CN7)nc(OC6CC7(COC7)C6)nc45)cc3)nn2)cc1 [Example 69, (2S,4R)-1-((2S)-2-(4-(4-(((2-((2-oxaspiro[3.3]heptan-6-yl)oxy)-4-((1S,4S)-2,5-diazabicyclo[2.2.1]heptan-2-yl)-6-cyclopropyl-7-(6-fluoro-5-methyl-1H-indazol-4-yl)quinazolin-8-yl)oxy)methyl)phenyl)-1H-1,2,3-triazol-1-yl)-3-methylbutanoyl)-N—((R)-1-(4-(1-ethyl-1H-pyrazol-5-yl)phenyl)-2-hydroxyethyl)-4-hydroxypyrrolidine-2-carboxamide]
- DC50 (KRAS (G12D)): < 10 nM
- IC50 (AsPC-1 cells): < 10 nM

Compound: CCn1nccc1-c1ccc([C@H](CO)NC(=O)[C@@H]2C[C@@H](O)CN2C(=O)[C@H](C(C)C)n2cc(-c3ccc(COc4c(-c5c(C)c(F)cc6[nH]ncc56)c(C5CC5)cc5c(N6C[C@@H]7C[C@H]6CN7)nc(OC6CCC(OC)CC6)nc45)cc3)nn2)cc1 (stereo partly drawn) [Example 70, (2S,4R)-1-((2S)-2-(4-(4-(((4-((1S,4S)-2,5-diazabicyclo[2.2.1]heptan-2-yl)-6-cyclopropyl-7-(6-fluoro-5-methyl-1H-indazol-4-yl)-2-((4-methoxycyclohexyl)oxy)quinazolin-8-yl)oxy)methyl)phenyl)-1H-1,2,3-triazol-1-yl)-3-methylbutanoyl)-N—((R)-1-(4-(1-ethyl-1H-pyrazol-5-yl)phenyl)-2-hydroxyethyl)-4-hydroxypyrrolidine-2-carboxamide]
- DC50 (KRAS (G12D)): < 10 nM
- IC50 (AsPC-1 cells): < 10 nM

Compound: CO[C@@H](C)COc1nc(N2C[C@@H]3C[C@H]2CN3)c2cc(C3CC3)c(-c3c(C)c(F)cc4[nH]ncc34)c(OCc3ccc(-c4cn([C@H](C(=O)N5C[C@H](O)C[C@H]5C(=O)N[C@H](C#Cc5nn(C)c6ccccc56)CO)C(C)C)nn4)cc3)c2n1 [Example 71, (2S,4R)-1-((2S)-2-(4-(4-(((4-((1S,4S)-2,5-diazabicyclo[2.2.1]heptan-2-yl)-6-cyclopropyl-7-(6-fluoro-5-methyl-1H-indazol-4-yl)-2-((S)-2-methoxypropoxy)quinazolin-8-yl)oxy)methyl)phenyl)-1H-1,2,3-triazol-1-yl)-3-methylbutanoyl)-4-hydroxy-N—((R)-1-hydroxy-4-(1-methyl-1H-indazol-3-yl)but-3-yn-2-yl)pyrrolidine-2-carboxamide]
- DC50 (KRAS (G12D)): < 10 nM
- IC50 (AsPC-1 cells): < 10 nM

Compound: Cc1ncsc1-c1ccc([C@@H](NC(=O)[C@@H]2C[C@@H](O)CN2C(=O)[C@H](C(C)C)n2cc(-c3ccc(COc4c(-c5c(C)c(F)cc6[nH]ncc56)c(C5CC5)cc5c(N6C[C@@H]7C[C@H]6CN7)nc(OC6CCOCC6)nc45)cc3)nn2)[C@H](C)O)cc1 [Example 72, (2S,4R)-1-((2S)-2-(4-(4-(((4-((1S,4S)-2,5-diazabicyclo[2.2.1]heptan-2-yl)-6-cyclopropyl-7-(6-fluoro-5-methyl-1H-indazol-4-yl)-2-((tetrahydro-2H-pyran-4-yl)oxy)quinazolin-8-yl)oxy)methyl)phenyl)-1H-1,2,3-triazol-1-yl)-3-methylbutanoyl)-4-hydroxy-N-((1R,2S)-2-hydroxy-1-(4-(4-methylthiazol-5-yl)phenyl)propyl)pyrrolidine-2-carboxamide]
- DC50 (KRAS (G12D)): < 10 nM
- IC50 (AsPC-1 cells): < 10 nM

Compound: CCn1nccc1-c1ccc([C@@H](NC(=O)[C@@H]2C[C@@H](O)CN2C(=O)[C@H](C(C)C)n2cc(-c3ccc(COc4c(-c5c(C)c(F)cc6[nH]ncc56)c(C5CC5)cc5c(N6C[C@@H]7C[C@H]6CN7)nc(OC[C@H](C)OC)nc45)cc3)nn2)[C@@H](C)O)cc1 [Example 73, (2S,4R)-1-((2S)-2-(4-(4-(((4-((1S,4S)-2,5-diazabicyclo[2.2.1]heptan-2-yl)-6-cyclopropyl-7-(6-fluoro-5-methyl-1H-indazol-4-yl)-2-((S)-2-methoxypropoxy)quinazolin-8-yl)oxy)methyl)phenyl)-1H-1,2,3-triazol-1-yl)-3-methylbutanoyl)-N-((1R,2R)-1-(4-(1-ethyl-1H-pyrazol-5-yl)phenyl)-2-hydroxypropyl)-4-hydroxypyrrolidine-2-carboxamide]
- DC50 (KRAS (G12D)): < 10 nM
- IC50 (AsPC-1 cells): < 10 nM

Compound: CCn1nccc1-c1ccc([C@H](CO)NC(=O)[C@@H]2C[C@@H](O)CN2C(=O)[C@H](C(C)C)n2cc(-c3ccc(COc4c(-c5c(C)c(F)cc6[nH]ncc56)c(C5CC5)cc5c(N6C[C@@H]7C[C@H]6CN7)nc(O[C@H]6C[C@H](OC)C6)nc45)cc3)nn2)cc1 [Example 74, (2S,4R)-1-((2S)-2-(4-(4-(((4-((1S,4S)-2,5-diazabicyclo[2.2.1]heptan-2-yl)-6-cyclopropyl-7-(6-fluoro-5-methyl-1H-indazol-4-yl)-2-((1r,3S)-3-methoxycyclobutoxy)quinazolin-8-yl)oxy)methyl)phenyl)-1H-1,2,3-triazol-1-yl)-3-methylbutanoyl)-N—((R)-1-(4-(1-ethyl-1H-pyrazol-5-yl)phenyl)-2-hydroxyethyl)-4-hydroxypyrrolidine-2-carboxamide]
- DC50 (KRAS (G12D)): < 10 nM
- IC50 (AsPC-1 cells): < 10 nM

Compound: Cc1ncsc1-c1ccc([C@H](CO)NC(=O)[C@@H]2C[C@@H](O)CN2C(=O)[C@H](C(C)C)n2cc(-c3ccc(COc4c(-c5c(C)c(F)c(F)c6[nH]ncc56)c(C5CC5)cc5c(N6C[C@@H]7C[C@H]6CN7)nc(OC6CCOCC6)nc45)cc3)nn2)cc1 [Example 76, (2S,4R)-1-((2S)-2-(4-(4-(((4-((1S,4S)-2,5-diazabicyclo[2.2.1]heptan-2-yl)-6-cyclopropyl-7-(6,7-difluoro-5-methyl-1H-indazol-4-yl)-2-((tetrahydro-2H-pyran-4-yl)oxy)quinazolin-8-yl)oxy)methyl)phenyl)-1H-1,2,3-triazol-1-yl)-3-methylbutanoyl)-4-hydroxy-N—((R)-2-hydroxy-1-(4-(4-methylthiazol-5-yl)phenyl)ethyl)pyrrolidine-2-carboxamide]
- DC50 (KRAS (G12D)): < 10 nM
- IC50 (AsPC-1 cells): < 10 nM

Compound: CO[C@@H](C)COc1nc(N2C[C@@H]3C[C@H]2CN3)c2cc(C3CC3)c(-c3c(C)c(F)cc4[nH]ncc34)c(OCc3ccc(-c4cn([C@H](C(=O)N5C[C@H](O)C[C@H]5C(=O)N[C@H](C#Cc5cccc(F)c5)CO)C(C)C)nn4)cc3)c2n1 [Example 77, (2S,4R)-1-((2S)-2-(4-(4-(((4-((1S,4S)-2,5-diazabicyclo[2.2.1]heptan-2-yl)-6-cyclopropyl-7-(6-fluoro-5-methyl-1H-indazol-4-yl)-2-((S)-2-methoxypropoxy)quinazolin-8-yl)oxy)methyl)phenyl)-1H-1,2,3-triazol-1-yl)-3-methylbutanoyl)-N—((R)-4-(3-fluorophenyl)-1-hydroxybut-3-yn-2-yl)-4-hydroxypyrrolidine-2-carboxamide]
- DC50 (KRAS (G12D)): < 10 nM
- IC50 (AsPC-1 cells): < 10 nM
